Assay results reported in article PMC6364417, “Kinase inhibitor library screening identifies synergistic drug combinations effective in sensitive and resistant melanoma cells” (Journal of Experimental & Clinical Cancer Research : CR, 2019).

What was measured:
[1] = tested on: A375-GP cells (Dabrafenib-resistant); test: Dose-response curves and IC50, PrestoBlue cell viability, 72 h; format: cell-based, human; conditions: n.e. = did not suppress growth below 50% in the tested concentration range; for IC50: Homo sapiens, read-out: Half-maximal inhibitory concentration value (IC50), Mean
A375 cells (parental) [2] = test: as above; format: cell-based, human; conditions: for IC50: Homo sapiens, A-375, n.e. = did not suppress growth below 50% in the tested concentration range, read-out: Half-maximal inhibitory concentration value (IC50), Mean; for Half-maximal inhibitory concentration value (IC50), Mean: n.e. = did not suppress growth below 50% in the tested concentration range
[3] = tested on: A375-XP cells (Vemurafenib-resistant); test: as above; format: cell-based, human; conditions: n.e. = did not suppress growth below 50% in the tested concentration range; for IC50: Homo sapiens, read-out: Half-maximal inhibitory concentration value (IC50), Mean
IGR37 cells (parental) = test: Kinase inhibitor library screening, PrestoBlue cell viability, 1 or 10 μM, 72 h
[4] = tested on: 501Mel-GP cells (Dabrafenib-resistant); test: as above
[5] = tested on: A375-GP cells (Dabrafenib-resistant); test: as above
[6] = tested on: IGR37-XP cells (Vemurafenib-resistant); test: as above
[7] = tested on: IGR37-GP cells (Dabrafenib-resistant); test: as above
[8] = tested on: 501Mel-XP cells (Vemurafenib-resistant); test: as above
A375 cells (parental) [9] = test: as above
[10] = tested on: A375-XP cells (Vemurafenib-resistant); test: as above
501Mel cells (parental) = test: as above
How it was run: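 Kinase inhibitors added at two fixed concentrations; 72 h exposure; PrestoBlue readout; % viability vs untreated; n ≥ 2 per line.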

CC(=O)c1c(C)c2cnc(Nc3ccc(N4CCNCC4)cn3)nc2n(C2CCCC2)c1=O [Palbociclib]
IC50 [1]: 2.21 µM | IC50 (A375 cells (parental) [2]): 5.32 µM | IC50 [3]: 4.99 µM

CNC(=O)c1cc(Oc2ccc(NC(=O)Nc3ccc(Cl)c(C(F)(F)F)c3)c(F)c2)ccn1 [Regorafenib]
IC50 [1]: 0.701 µM | IC50 (A375 cells (parental) [2]): 2.73 µM | IC50 [3]: 1.71 µM

CCS(=O)(=O)c1cccc(-c2cc(C(=O)NC3CCN(C)CC3)c(C)c3[nH]c4ncc(C)cc4c23)c1 [TAK-901, reference compound]
cell viability (kinase inhibitor library screening) (IGR37 cells (parental); IGR37 Parental, 1μΜ, 72 h): 93.0% | cell viability (kinase inhibitor library screening) (IGR37 cells (parental); IGR37 Parental, 10μΜ, 72 h): 30.2% | cell viability (kinase inhibitor library screening) ([4]; 501Mel GP, 1μΜ, 72 h): 88.7% | cell viability (kinase inhibitor library screening) ([4]; 501Mel GP, 10μΜ, 72 h): 29.0% | cell viability (kinase inhibitor library screening) ([5]; A375 GP, 1μΜ, 72 h): 41.6% | cell viability (kinase inhibitor library screening) ([5]; A375 GP, 10μΜ, 72 h): 8.5% | cell viability (kinase inhibitor library screening) ([6]; IGR37 XP, 1μΜ, 72 h): 73.0% | cell viability (kinase inhibitor library screening) ([6]; IGR37 XP, 10μΜ, 72 h): 4.0% | cell viability (kinase inhibitor library screening) ([7]; IGR37 GP, 1μΜ, 72 h): 97.2% | cell viability (kinase inhibitor library screening) ([7]; IGR37 GP, 10μΜ, 72 h): 9.5% | cell viability (kinase inhibitor library screening) ([8]; 501Mel XP, 1μΜ, 72 h): 83.2% | cell viability (kinase inhibitor library screening) ([8]; 501Mel XP, 10μΜ, 72 h): 25.7% | cell viability (kinase inhibitor library screening) (A375 cells (parental) [9]; A375 Parental, 10μΜ, 72 h): 7.6% | cell viability (kinase inhibitor library screening) (A375 cells (parental) [9]; A375 Parental, 1μΜ, 72 h): 45.8% | cell viability (kinase inhibitor library screening) ([10]; A375 XP, 1μΜ, 72 h): 52.1% | cell viability (kinase inhibitor library screening) ([10]; A375 XP, 10μΜ, 72 h): 9.6% | cell viability (kinase inhibitor library screening) (501Mel cells (parental); 501Mel Parental, 1μΜ, 72 h): 82.7% | cell viability (kinase inhibitor library screening) (501Mel cells (parental); 501Mel Parental, 10μΜ, 72 h): 12.7% | IC50 [1]: 0.338 µM | IC50 (A375 cells (parental) [2]): 0.398 µM | IC50 [3]: 0.472 µM

C[C@]1(O)C[C@@H](c2nc(-c3ccc4ccc(-c5ccccc5)nc4c3)c3c(N)nccn32)C1 [Linsitinib]
IC50 [1]: 2.08 µM | IC50 (A375 cells (parental) [2]): 4.17 µM | IC50 [3]: 2.94 µM

CCN(CCCOc1ccc2c(Nc3cc(CC(=O)Nc4cccc(F)c4)n[nH]3)ncnc2c1)CCOP(=O)(O)O [Barasertib]
Half-maximal inhibitory concentration value (IC50), Mean [1]: n.e. | Half-maximal inhibitory concentration value (IC50), Mean (A375 cells (parental) [2]): n.e. | Half-maximal inhibitory concentration value (IC50), Mean [3]: n.e.

Cn1cnc2c(F)c(Nc3ccc(Br)cc3Cl)c(C(=O)NOCCO)cc21 [AZD6244]
Half-maximal inhibitory concentration value (IC50), Mean [1]: n.e. | Half-maximal inhibitory concentration value (IC50), Mean (A375 cells (parental) [2]): n.e. | Half-maximal inhibitory concentration value (IC50), Mean [3]: n.e.

FC(F)(F)c1ccc(Nc2nc3ccc(Oc4ccnc(-c5ncc(C(F)(F)F)[nH]5)c4)cc3[nH]2)cc1 [Raf265 derivative]
cell viability (kinase inhibitor library screening) (IGR37 cells (parental); IGR37 Parental, 1μΜ, in %): 104.0 | cell viability (kinase inhibitor library screening) (IGR37 cells (parental); IGR37 Parental, 10μΜ, in %): 102.6 | cell viability (kinase inhibitor library screening) ([4]; 501Mel GP, 10μΜ, in %): 88.7 | cell viability (kinase inhibitor library screening) ([5]; A375 GP, 1μΜ, in %): 97.7 | cell viability (kinase inhibitor library screening) ([5]; A375 GP, 10μΜ, in %): 60.2 | cell viability (kinase inhibitor library screening) ([6]; IGR37 XP, 1μΜ, in %): 106.8 | cell viability (kinase inhibitor library screening) ([6]; IGR37 XP, 10μΜ, in %): 69.4 | cell viability (kinase inhibitor library screening) ([7]; IGR37 GP, 1μΜ, in %): 94.6 | cell viability (kinase inhibitor library screening) ([7]; IGR37 GP, 10μΜ, in %): 87.0 | cell viability (kinase inhibitor library screening) ([8]; 501Mel XP, 1μΜ, in %): 116.2 | cell viability (kinase inhibitor library screening) ([8]; 501Mel XP, 10μΜ, in %): 77.9 | cell viability (kinase inhibitor library screening) (A375 cells (parental) [9]; A375 Parental, 1μΜ, in %): 104.6 | cell viability (kinase inhibitor library screening) (A375 cells (parental) [9]; A375 Parental, 10μΜ, in %): 74.8 | cell viability (kinase inhibitor library screening) ([10]; A375 XP, 10μΜ, in %): 66.1 | cell viability (kinase inhibitor library screening) (501Mel cells (parental); 501Mel Parental, 10μΜ, in %): 91.6

CCN1CCN(c2ccc(Nc3cc(N(C)C(=O)Nc4c(Cl)c(OC)cc(OC)c4Cl)ncn3)cc2)CC1 [BGJ398 (NVP-BGJ398)]
viability at 1 µM (IGR37 cells (parental); Homo sapiens, IGR-37, 72 h, read-out: cell viability, IGR37 Parental, 1μΜ): 100% | viability at 10 µM (IGR37 cells (parental); Homo sapiens, IGR-37, 72 h, read-out: cell viability, IGR37 Parental, 10μΜ): 4.3% | viability at 1 µM ([4]; Homo sapiens, 72 h, read-out: cell viability, 501Mel GP, 1μΜ): 108% | viability at 10 µM ([4]; Homo sapiens, 72 h, read-out: cell viability, 501Mel GP, 10μΜ): 0.142% | viability at 1 µM ([5]; Homo sapiens, A-375, 72 h, read-out: cell viability, A375 GP, 1μΜ): 101% | viability at 10 µM ([5]; Homo sapiens, A-375, 72 h, read-out: cell viability, A375 GP, 10μΜ): 6.6% | viability at 1 µM ([6]; Homo sapiens, IGR-37, 72 h, read-out: cell viability, IGR37 XP, 1μΜ): 97.5% | viability at 10 µM ([6]; Homo sapiens, IGR-37, 72 h, read-out: cell viability, IGR37 XP, 10μΜ): 1% | viability at 1 µM ([7]; Homo sapiens, IGR-37, 72 h, read-out: cell viability, IGR37 GP, 1μΜ): 87.7% | viability at 10 µM ([7]; Homo sapiens, IGR-37, 72 h, read-out: cell viability, IGR37 GP, 10μΜ): 3.2% | viability at 1 µM ([8]; Homo sapiens, 72 h, read-out: cell viability, 501Mel XP, 1μΜ): 97.9% | viability at 10 µM ([8]; Homo sapiens, 72 h, read-out: cell viability, 501Mel XP, 10μΜ): -0.109% | viability at 1 µM (A375 cells (parental) [9]; Homo sapiens, A-375, 72 h, read-out: cell viability, A375 Parental, 1μΜ): 101% | viability at 10 µM (A375 cells (parental) [9]; Homo sapiens, A-375, 72 h, read-out: cell viability, A375 Parental, 10μΜ): 9% | viability at 1 µM ([10]; Homo sapiens, A-375, 72 h, read-out: cell viability, A375 XP, 1μΜ): 104% | viability at 10 µM ([10]; Homo sapiens, A-375, 72 h, read-out: cell viability, A375 XP, 10μΜ): 3.9% | viability at 1 µM (501Mel cells (parental); Homo sapiens, 72 h, read-out: cell viability, 501Mel Parental, 1μΜ): 96.6% | viability at 10 µM (501Mel cells (parental); Homo sapiens, 72 h, read-out: cell viability, 501Mel Parental, 10μΜ): 0.424%

COc1ccc2cc(-c3nc(-c4ccc([S+](C)[O-])cc4)[nH]c3-c3ccncc3)ccc2c1 (centres unmarked) [Tie2 kinase inhibitor]
cell viability (kinase inhibitor library screening) (IGR37 cells (parental); IGR37 Parental, 10μΜ, in %): 103.5 | cell viability (kinase inhibitor library screening) ([4]; 501Mel GP, 1μΜ, in %): 107.0 | cell viability (kinase inhibitor library screening) ([4]; 501Mel GP, 10μΜ, in %): 87.5 | cell viability (kinase inhibitor library screening) ([5]; A375 GP, 1μΜ, in %): 96.7 | cell viability (kinase inhibitor library screening) ([5]; A375 GP, 10μΜ, in %): 82.6 | cell viability (kinase inhibitor library screening) ([6]; IGR37 XP, 10μΜ, in %): 62.0 | cell viability (kinase inhibitor library screening) ([7]; IGR37 GP, 1μΜ, in %): 94.1 | cell viability (kinase inhibitor library screening) ([8]; 501Mel XP, 1μΜ, in %): 96.5 | cell viability (kinase inhibitor library screening) ([8]; 501Mel XP, 10μΜ, in %): 64.5 | cell viability (kinase inhibitor library screening) (A375 cells (parental) [9]; A375 Parental, 10μΜ, in %): 96.4 | cell viability (kinase inhibitor library screening) ([10]; A375 XP, 10μΜ, in %): 97.1 | cell viability (kinase inhibitor library screening) (501Mel cells (parental); 501Mel Parental, 1μΜ, in %): 96.1 | cell viability (kinase inhibitor library screening) (501Mel cells (parental); 501Mel Parental, 10μΜ, in %): 90.5

CC(C)(C)Cn1c(N)nc2ccc(-c3[nH]c(C(C)(C)C)nc3-c3ccc(F)cc3)nc21 [LY2228820]
Cell viability in kinase inhibitor library screening, IGR37 Parental, 10μΜ (IGR37 cells (parental); IGR37 Parental, 10μΜ, 72 h, in %): 98.8 | Cell viability in kinase inhibitor library screening, 501Mel GP, 1μΜ ([4]; 501Mel GP, 1μΜ, 72 h, in %): 108.2 | Cell viability in kinase inhibitor library screening, A375 GP, 1μΜ ([5]; A375 GP, 1μΜ, 72 h): 105.3 | Cell viability in kinase inhibitor library screening, A375 GP, 10μΜ ([5]; A375 GP, 10μΜ, 72 h): 79.1 | Cell viability in kinase inhibitor library screening, IGR37 XP, 10μΜ ([6]; IGR37 XP, 10μΜ, 72 h): 38.4% | Cell viability in kinase inhibitor library screening, IGR37 XP, 1μΜ ([6]; IGR37 XP, 1μΜ, 72 h, in %): 91.6 | Cell viability in kinase inhibitor library screening, IGR37 GP, 10μΜ ([7]; IGR37 GP, 10μΜ, 72 h): 82.8% | Cell viability in kinase inhibitor library screening, IGR37 GP, 1μΜ ([7]; IGR37 GP, 1μΜ, 72 h, in %): 90.6 | Cell viability in kinase inhibitor library screening, 501Mel XP, 1μΜ ([8]; 501Mel XP, 1μΜ, 72 h, in %): 97.0 | Cell viability in kinase inhibitor library screening, 501Mel XP, 10μΜ ([8]; 501Mel XP, 10μΜ, 72 h, in %): 82.4 | Cell viability in kinase inhibitor library screening, A375 Parental, 10μΜ (A375 cells (parental) [9]; A375 Parental, 10μΜ, 72 h): 91.0 | Cell viability in kinase inhibitor library screening, A375 Parental, 1μΜ (A375 cells (parental) [9]; A375 Parental, 1μΜ, 72 h): 105.7 | Cell viability in kinase inhibitor library screening, A375 XP, 1μΜ ([10]; A375 XP, 1μΜ, 72 h): 100.0 | Cell viability in kinase inhibitor library screening, A375 XP, 10μΜ ([10]; A375 XP, 10μΜ, 72 h): 84.7 | Cell viability in kinase inhibitor library screening, 501Mel Parental, 1μΜ (501Mel cells (parental); 501Mel Parental, 1μΜ, 72 h, in %): 95.6 | Cell viability in kinase inhibitor library screening, 501Mel Parental, 10μΜ (501Mel cells (parental); 501Mel Parental, 10μΜ, 72 h, in %): 91.9
